ChEMBL document CHEMBL1121647, “Synthesis and antiviral properties of (Z)-5-(2-bromovinyl)-2'-deoxyuridine” (1981)
≈ marks a conversion by molar mass, not a printed value.

Test system: Vaccinia virus
Test: Minimum inhibitory concentration required to reduce vaccinia virus-induced cytopathogenicity in primary rabbit kidney cell cultures
Type: functional
Conditions: Orthopoxvirus vaccinia

Row | SMILES | MIC [µg/mL]
1 | O=c1[nH]c(=O)n([C@H]2C[C@H](O)[C@@H](CO)O2)cc1/C=C/Br [BRIVUDINE] | 4 (≈ 12 µM)
2 | O=c1[nH]c(=O)n([C@H]2C[C@H](O)[C@@H](CO)O2)cc1I [IDOXURIDINE] | 0.1 (≈ 0.282 µM)
3 | O=c1[nH]c(=O)n([C@H]2C[C@H](O)[C@@H](CO)O2)cc1/C=C\Br | 4 (≈ 12 µM)
